Results as given in ChEMBL document CHEMBL5724914, “Linking interpersonal differences in gut microbiota composition and drug biotransformation activity” (2024).

Experiments:
[1] = human gut metagenome, 24 h, 2 µM
[2] = human gut metagenome, 24 h, 2 µM; remark: listed apart in the source
[3] = human gut metagenome, 24 h, 2 µM; remark: listed apart in the source
[4] = human gut metagenome, 24 h, 2 µM; remark: listed apart in the source
[5] = human gut metagenome, 24 h, 2 µM; remark: listed apart in the source
[6] = human gut metagenome, 24 h, 2 µM; remark: listed apart in the source
[7] = (§1) The drug is tested on WLS-006 corresponding to human gut metagenome with ENA study accession number: PRJEB37062 and ENA sample accession number: ERS12561741 for biotransformation under anaerobic condition. The drug concentrations were measured over 9 timepoints collected between 0 and 24 hours of incubation by liquid-chromatography-coupled mass spectrometry (LC–MS); conditions: 2 µM
[8] = as §1, with “WLS-170” for “WLS-006”, “ERS12561762” for “ERS12561741”; conditions: 2 µM
[9] = as §1, with “WLS-010” for “WLS-006”, “ERS12561743” for “ERS12561741”; conditions: 2 µM
[10] = as §1, with “Z-028” for “WLS-006”, “mouse” for “human”, “ERS12561827” for “ERS12561741”; conditions: 2 µM
[11] = human gut metagenome, 24 h, 2 µM; remark: listed apart in the source
[12] = human gut metagenome, 24 h, 2 µM; remark: listed apart in the source
[13] = as §1, with “Z-022” for “WLS-006”, “mouse” for “human”, “ERS12561821” for “ERS12561741”; conditions: 2 µM
[14] = as §1, with “WLS-073” for “WLS-006”, “ERS12561749” for “ERS12561741”; conditions: 2 µM
[15] = human gut metagenome, 24 h, 2 µM; remark: listed apart in the source
[16] = human gut metagenome, 24 h, 2 µM; remark: listed apart in the source
[17] = as §1, with “WLS-350” for “WLS-006”, “ERS12561789” for “ERS12561741”; conditions: 2 µM
[18] = as §1, with “Z-007” for “WLS-006”, “rat” for “human”, “ERS12561807” for “ERS12561741”; conditions: 2 µM
[19] = human gut metagenome, 24 h, 2 µM; remark: listed apart in the source
[20] = as §1, with “WLS-240” for “WLS-006”, “ERS12561773” for “ERS12561741”; conditions: 2 µM
Also: call rule not given here.

Structure (SMILES)	Bacterial Biotransformation [1]	Bacterial Biotransformation [2]	Bacterial Biotransformation [3]	Bacterial Biotransformation [4]	Bacterial Biotransformation [5]	Bacterial Biotransformation [6]	Bacterial Biotransformation [7]	Bacterial Biotransformation [8]	Bacterial Biotransformation [9]	Bacterial Biotransformation [10]	Bacterial Biotransformation [11]	Bacterial Biotransformation [12]	Bacterial Biotransformation [13]	Bacterial Biotransformation [14]	Bacterial Biotransformation [15]	Bacterial Biotransformation [16]	Bacterial Biotransformation [17]	Bacterial Biotransformation [18]	Bacterial Biotransformation [19]	Bacterial Biotransformation [20]
O=C(NCc1ccccc1)OCCO [BURAMATE]	Compound NOT metabolized	Compound NOT metabolized	Compound NOT metabolized	Compound NOT metabolized	Compound NOT metabolized	Compound NOT metabolized	Compound NOT metabolized	Compound NOT metabolized	Compound NOT metabolized	Compound NOT metabolized	Compound NOT metabolized	Compound NOT metabolized	Compound NOT metabolized	Compound NOT metabolized	Compound NOT metabolized	Compound NOT metabolized	Compound NOT metabolized	Compound NOT metabolized	Compound NOT metabolized	Compound NOT metabolized
NC12CC3CC(CC(C3)C1)C2 [AMANTADINE]	Compound NOT metabolized	Compound NOT metabolized	Compound NOT metabolized	Compound NOT metabolized	Compound NOT metabolized	Compound NOT metabolized	Compound NOT metabolized	Compound metabolized	Compound NOT metabolized	Compound NOT metabolized	Compound NOT metabolized	Compound NOT metabolized	Compound metabolized	Compound NOT metabolized	Compound NOT metabolized	Compound NOT metabolized	Compound NOT metabolized	Compound NOT metabolized	Compound NOT metabolized	Compound NOT metabolized
CCC(=O)NCC[C@@H]1CCc2ccc3c(c21)CCO3 [RAMELTEON]	Compound metabolized	Compound metabolized	Compound metabolized	Compound metabolized	Compound metabolized	Compound metabolized	Compound metabolized	Compound metabolized	Compound metabolized	Compound NOT metabolized	Compound metabolized	Compound metabolized	Compound metabolized	Compound NOT metabolized	Compound metabolized	Compound metabolized	Compound metabolized	Compound NOT metabolized	Compound metabolized	Compound metabolized
CC(CN1c2ccccc2Sc2ccccc21)N(C)C (stereo not given) [PROMETHAZINE]	Compound NOT metabolized	Compound NOT metabolized	Compound NOT metabolized	Compound metabolized	Compound metabolized	Compound NOT metabolized	Compound metabolized	Compound metabolized	Compound NOT metabolized	Compound NOT metabolized	Compound metabolized	Compound metabolized	Compound NOT metabolized	Compound NOT metabolized	Compound metabolized	Compound metabolized	Compound metabolized	Compound NOT metabolized	Compound NOT metabolized	Compound metabolized
OCCN1CCN(CCCN2c3ccccc3Sc3ccc(C(F)(F)F)cc32)CC1 [FLUPHENAZINE]	Compound metabolized	Compound metabolized	Compound metabolized	Compound metabolized	Compound NOT metabolized	Compound metabolized	Compound NOT metabolized	Compound metabolized	Compound metabolized	Compound metabolized	Compound metabolized	Compound metabolized	Compound metabolized	Compound metabolized	Compound metabolized	Compound metabolized	Compound metabolized	Compound NOT metabolized	Compound metabolized	Compound metabolized
CNS(=O)(=O)Cc1ccc2[nH]cc(CCN(C)C)c2c1.O=C(O)CCC(=O)O [SUMATRIPTAN SUCCINATE]	Compound NOT metabolized	Compound metabolized	Compound NOT metabolized	Compound NOT metabolized	Compound metabolized	Compound metabolized	Compound NOT metabolized	Compound NOT metabolized	Compound NOT metabolized	Compound NOT metabolized	Compound NOT metabolized	Compound NOT metabolized	Compound NOT metabolized	Compound NOT metabolized	Compound NOT metabolized	Compound NOT metabolized	Compound NOT metabolized	Compound NOT metabolized	Compound metabolized	Compound metabolized
CC(C)(C#N)c1cc(Cn2cncn2)cc(C(C)(C)C#N)c1 [ANASTROZOLE]	Compound NOT metabolized	Compound metabolized	Compound NOT metabolized	Compound NOT metabolized	Compound NOT metabolized	Compound NOT metabolized	Compound NOT metabolized	Compound metabolized	Compound NOT metabolized	Compound NOT metabolized	Compound metabolized	Compound NOT metabolized	Compound metabolized	Compound NOT metabolized	Compound NOT metabolized	Compound metabolized	Compound metabolized	Compound NOT metabolized	Compound metabolized	Compound metabolized
Cc1ccc(S(=O)(=O)NC(=O)NN2CC3CCCC3C2)cc1 (stereo not given) [GLICLAZIDE]	Compound metabolized	Compound metabolized	Compound NOT metabolized	Compound metabolized	Compound metabolized	Compound metabolized	Compound metabolized	Compound metabolized	Compound metabolized	Compound metabolized	Compound metabolized	Compound metabolized	Compound metabolized	Compound metabolized	Compound metabolized	Compound metabolized	Compound metabolized	Compound NOT metabolized	Compound metabolized	Compound metabolized
CCN(CC)CCOCCOC(=O)C1(c2ccccc2)CCCC1.O=C(O)CC(O)(CC(=O)O)C(=O)O [CARBETAPENTANE CITRATE]	Compound metabolized	Compound metabolized	Compound metabolized	Compound metabolized	Compound metabolized	Compound metabolized	Compound metabolized	Compound metabolized	Compound metabolized	Compound NOT metabolized	Compound metabolized	Compound metabolized	Compound metabolized	Compound metabolized	Compound NOT metabolized	Compound metabolized	Compound NOT metabolized	Compound NOT metabolized	Compound metabolized	Compound metabolized
